Test results reported in patent publication US9029376B2, “Small molecule inhibitors for the treatment or prevention of dengue virus infection” (Siga Technologies, Inc., priority 2008, dated 2015).
pEC50: −log10 of the molar value.

What follows are molecules tested on Dengue-2 (Strain New Guinea C) (assay: Dengue-2 viral yield assay in Vero cells). Settings: Dengue virus, Vero, 48 h, read-out: Activity (anti-dengue 2 viral activity, EC50).
Type: cell-based
Procedure: Compounds that were active in the primary screen were tested for activity in viral yield assays. […] Vero cells in 12-well plates were infected with dengue-2 virus at a multiplicity of infection (MOI) of 0.1, treated with compound (or DMSO as a control), incubated at 37° C., harvested 48 hours post infection and titered on Vero cells as described above. The EC50 was calculated through ExcelFit. Those compounds with activity below 1 μM are indicated with “A”, those with activity between 1 and 10 μM are indicated with “B”, and those with activity between 10 and 25 μM with “C”.

Compound | pEC50
O=C(Nc1ccc2nc(SCC(=O)N3CCOCC3)sc2c1)c1ccc(Cl)cc1Cl [Compound 6, 2,4-Dichloro-N-[2-(2-morpholin-4-yl-2-oxo-ethylsulfanyl)-benzothiazol-6-yl]-benzamide] | 5.00 to 6.00
CCOc1ccc2nc(SCC(=O)N3CCc4ccccc4C3)sc2c1 [Compound 7, 1-(3,4-Dihydro-1H-isoquinolin-2-yl)-2-(6-ethoxy-benzothiazol-2-ylsulfanyl)-ethanone] | 5.00 to 6.00
O=C(CSc1nc2ccccc2[nH]1)N1CCN(c2ccc(F)cc2)CC1 [Compound 8, 2-(1H-Benzoimidazol-2-ylsulfanyl)-1-[4-(4-fluoro-phenyl)-piperazin-1-yl]-ethanone] | 5.00 to 6.00
NC(=O)C1(N2CCCCC2)CCN(C(=O)CSc2nc3ccccc3s2)CC1 [Compound 9, 1′-[2-(Benzothiazol-2-ylsulfanyl)-acetyl]-[1,4′]bipiperidinyl-4′-carboxylic acid amide] | 5.00 to 6.00
Cc1cccc(C(=O)Nc2ccc3nc(SCC(=O)N4CCOCC4)sc3c2)c1 [Compound 13, 3-Methyl-N-[2-(2-morpholin-4-yl-2-oxo-ethylsulfanyl)-benzothiazol-6-yl]-benzamide] | 4.60 to 5.00
Nc1ccc2nc(SCC(=O)N3CCOCC3)sc2c1 [Compound 16, 2-(6-Amino-benzothiazol-2-ylsulfanyl)-1-morpholin-4-yl-ethanone] | < 4.60
O=C(Nc1ccc2nc(SCC(=O)N3CCOCC3)sc2c1)c1ccccc1Br [Compound 20, 2-Bromo-N-[2-(2-morpholin-4-yl-2-oxo-ethylsulfanyl)-benzothiazol-6-yl]-benzamide] | < 4.60
O=C(Nc1ccc2nc(SCC(=O)N3CCOCC3)sc2c1)c1ccccc1 [Compound 21, N-[2-(2-Morpholin-4-yl-2-oxo-ethylsulfanyl)-benzothiazol-6-yl]-benzamide] | < 4.60
COc1ccccc1C(=O)Nc1ccc2nc(SCC(=O)N3CCOCC3)sc2c1 [Compound 28, 2-Methoxy-N-[2-(2-morpholin-4-yl-2-oxo-ethylsulfanyl)-benzothiazol-6-yl]-benzamide] | < 4.60

Same assay, conditions: Dengue virus; Dengue-2 strain New Guinea C, Vero cells, MOI 0.1, harvested 48 hours post infection, viral yield; read-out: Activity (anti-dengue 2 viral activity, EC50)

Compound | pEC50
O=C(CCc1ccccc1)Nc1ccc2nc(SCC(=O)N3CCOCC3)sc2c1 [Compound 1, N-[2-(2-Morpholin-4-yl-2-oxo-ethylsulfanyl)-benzothiazol-6-yl]-3-phenyl-propionamide] | > 6.00
CCC(=O)Nc1ccc2nc(SCC(=O)N3CCCCC3)sc2c1 [Compound 2, N-[2-(2-oxo-2-piperidin-1-yl-ethylsulfanyl)-benzothiazol-6-yl]-propionamide] | > 6.00
Cc1ccccc1C(=O)Nc1ccc2nc(SCC(=O)N3CCOCC3)sc2c1 [Compound 5, 2-Methyl-N-[2-(2-morpholin-4-yl-2-oxo-ethylsulfanyl)-benzothiazol-6-yl]-benzamide] | 5.00 to 6.00
Nc1ccc2nc(SCC(=O)N3CCN(Cc4ccccc4)CC3)sc2c1 [Compound 10, 2-(6-Amino-benzothiazol-2-ylsulfanyl)-1-(4-benzyl-piperazin-1-yl)-ethanone] | 5.00 to 6.00
O=C(CSc1nc2ccccc2o1)N1CCN(Cc2ccccc2)CC1 [Compound 11, 2-(Benzooxazol-2-ylsulfanyl)-1-(4-benzyl-piperazin-1-yl)-ethanone] | 5.00 to 6.00
CCOc1ccc2nc(SCC(=O)N3CCN(c4ccccc4)CC3)sc2c1 [Compound 14, 2-(6-Ethoxy-benzothiazol-2-ylsulfanyl)-1-(4-phenyl-piperazin-1-yl)-ethanone] | 4.60 to 5.00
CCN(CC)C(=O)CSc1nc2ccccc2n1C(=O)NC1CCCCC1 [Compound 15, 2-Diethylcarbamoylmethylsulfanyl-benzoimidazole-1-carboxylic acid cyclohexylamide] | < 4.60
O=C(CSc1nc2ccc(/N=C/c3ccc(Br)cc3)cc2s1)N1CCOCC1 [Compound 17, 2-(6-{[1-(4-Bromo-phenyl)-meth-(E)-ylidene]-amino}-benzothiazol-2-ylsulfanyl)-1-morpholin-4-yl-ethanone] | < 4.60
O=C(CSc1nc2ccc(/N=C/c3ccc(Cl)cc3)cc2s1)N1CCOCC1 [Compound 18, 2-(6-{[1-(4-Chloro-phenyl)-meth-(E)-ylidene]-amino}-benzothiazol-2-ylsulfanyl)-1-morpholin-4-yl-ethanone] | < 4.60
O=C(CSc1nc2ccc(/N=C/c3c4ccccc4cc4ccccc34)cc2s1)N1CCOCC1 [Compound 19, 2-(6-{[1-Anthracen-9-yl-meth-(E)-ylidene]-amino}-benzothiazol-2-ylsulfanyl)-1-morpholin-4-yl-ethanone] | < 4.60
CCCCOc1ccc(C(=O)Nc2ccc3nc(SCC(=O)N4CCOCC4)sc3c2)cc1 [Compound 22, 4-Butoxy-N-[2-(2-morpholin-4-yl-2-oxo-ethylsulfanyl)-benzothiazol-6-yl]-benzamide] | < 4.60
O=C(CSc1nc2ccc(/N=C/c3ccc(Sc4nnnn4-c4ccccc4)o3)cc2s1)N1CCOCC1 [Compound 23, 1-Morpholin-4-yl-2-(6-{[1-[5-(1-phenyl-1H-tetrazol-5-ylsulfanyl)-furan-2-yl]-meth-(E)-ylidene]-amino}-benzothiazol-2-ylsulfanyl)-ethanone] | < 4.60
O=C(CSc1nc2ccc(/N=C/c3c(Cl)cccc3Cl)cc2s1)N1CCOCC1 [Compound 24, 2-(6-{[1-(2,6-Dichloro-phenyl)-meth-(E)-ylidene]-amino}-benzothiazol-2-ylsulfanyl)-1-morpholin-4-yl-ethanone] | < 4.60
O=C(CSc1nc2ccc(/N=C/c3ccc(I)cc3)cc2s1)N1CCOCC1 [Compound 25, 2-(6-{[1-(4-Iodo-phenyl)-meth-(E)-ylidene]-amino}-benzothiazol-2-ylsulfanyl)-1-morpholin-4-yl-ethanone] | < 4.60
O=C(CSc1nc2ccc(/N=C/c3ccc(F)cc3)cc2s1)N1CCOCC1 [Compound 26, 2-(6-{[1-(4-Fluoro-phenyl)-meth-(E)-ylidene]-amino}-benzothiazol-2-ylsulfanyl)-1-morpholin-4-yl-ethanone] | < 4.60
O=C(Nc1ccc2nc(SCC(=O)N3CCOCC3)sc2c1)c1ccccc1F [Compound 27, 2-Fluoro-N-[2-(2-morpholin-4-yl-2-oxo-ethylsulfanyl)-benzothiazol-6-yl]-benzamide] | < 4.60
O=C(Nc1ccc2nc(SCC(=O)N3CCOCC3)sc2c1)c1ccc(Cl)c(Cl)c1 [Compound 29, 3,4-Dichloro-N-[2-(2-morpholin-4-yl-2-oxo-ethylsulfanyl)-benzothiazol-6-yl]-benzamide] | < 4.60
CCN(CC)C(=O)CSc1nc2ccc(N3C(=O)c4ccccc4C3=O)cc2s1 [Compound 30, 2-[6-(1,3-Dioxo-1,3-dihydro-isoindol-2-yl)-benzothiazol-2-ylsulfanyl]-N,N-diethyl-acetamide] | < 4.60
Nc1ccc2nc(SCC(=O)Nc3ccc4nc(SCC(=O)N5CCOCC5)sc4c3)sc2c1 [Compound 31, 2-(6-Amino-benzothiazol-2-ylsulfanyl)-N-[2-(2-morpholin-4-yl-2-oxo-ethylsulfanyl)-benzothiazol-6-yl]-acetamide] | < 4.60
O=C(Nc1ccc2nc(SCC(=O)N3CCOCC3)sc2c1)C1CCCCC1 [Compound 32, Cyclohexanecarboxylic acid [2-(2-morpholin-4-yl-2-oxo-ethylsulfanyl)-benzothiazol-6-yl]-amide] | < 4.60
